Assay results published in patent US8912338B2, “Pesticidal compositions” (Dow AgroSciences LLC, priority 2010, dated 2014).

Assays:
[1] = system: Green Peach Aphid (Myzus persicae); test: Insecticidal test for green peach aphid in foliar spray assay; assay type: in vivo; conditions: 72 h, 200 ppm foliar spray on cabbage seedlings, live aphids counted after three days, Abbott's corrected % control, read-out: MYZUPE % Ctrl @ 200 ppm
Procedure: Certain molecules disclosed in this document were tested against MYZUPE using procedures described in the following example. In the reporting of the results, the “MYZUPE, APHIGO and BEMITA Rating Table” was used (See Table Section).
Cabbage seedlings grown in 3-inch pots, with 2-3 small (3-5 cm) true leaves, were used as test substrate. The seedlings were infested with 20-50 green peach aphids (wingless adult and nymph stage) one day prior to chemical application. Four pots with individual seedlings were used for each treatment. Compounds (2 mg) were dissolved in 2 mL of acetone/methanol (1:1) solvent, forming stock solutions of 1000 ppm. The stock solutions were diluted 5× with 0.025% Tween 20 in H2O to obtain the test solution at 200 ppm. A hand-held Devilbiss sprayer was used for spraying a solution to both sides of cabbage leaves until runoff. Reference plants (solvent check) were sprayed with the diluent only. Treated plants were held in a holding room for three days at approximately 25° C. and 40% relative humidity (RH) prior to grading. Evaluation was conducted by counting the number of live aphids per plant under a microscope. Insecticidal activity data presented in Table 3 were generated by using Abbott's correction formula: Corrected%Control=100*(X−Y)/X • where X=No. of live aphids on solvent check plants • Y=No. of live aphids on treated plants

[2] = system: Sweetpotato Whitefly (Bemisia tabaci); test: Insecticidal test for sweetpotato whitefly in foliar spray assay; assay type: in vivo; conditions: 200 ppm foliar spray on cotton plants infested with eggs, live nymphs counted after 8-9 days, Abbott's corrected % control, read-out: BEMITA % Ctrl @ 200 ppm
Procedure: Cotton plants were used as test substrate and were grown in 3-inch pots and pruned until only 1 small (3-5 cm) true leaf remained. The plants were then placed in a room with whitefly ([…]) adults and allowed to be infested with eggs. After a 2-3 day egg-laying period, plants were taken from the adult whitefly room and the adults were removed from the leaves using compressed air delivered through a hand-held Devilbiss sprayer (23 psi). Plants infested with eggs (100-300 eggs per plant) were placed in a controlled-environment room for 5-6 days at 82° F. and 50% RH until approximately 50% egg hatch. Four cotton plants (4 replicates) were used for each treatment. Compounds (2 mg) were dissolved in 1 mL of acetone solvent, forming stock solutions of 2000 ppm. The stock solutions were diluted 10× with 0.025% Tween 20 in H2O to obtain the test solution of 200 ppm. A hand-held Devilbiss sprayer was used for spraying a solution to both sides of cotton leaf until runoff. Reference plants (solvent check) were sprayed with the diluent only. Treated plants were held in a holding room for 8-9 days at approximately 82° F. and 50% RH prior to grading. Evaluation was conducted by counting the number of live nymphs per plant under a microscope. Insecticidal activity data presented in Table 3 were generated by using Abbott's correction formula: Corrected%Control=100*(X-Y)/X • where X=No. of live nymphs on solvent check plants • Y=No. of live nymphs on treated plants […]

[3] = system: Cotton Aphid (Aphis gossypii); test: Insecticidal test for cotton aphid in a foliar spray assay; assay type: in vivo; conditions: 72 h, 200 ppm foliar spray on squash or cotton seedlings, live aphids counted after three days, Abbott's corrected % control, read-out: APHIGO % Ctrl @ 200 ppm
Procedure: Squash or cotton seedlings with fully expanded cotyledon leaves were trimmed to one cotyledon per plant and infested with wingless adult and nymph stage cotton aphid (APHIGO) one day prior to chemical application. Each plant was examined before chemical application to ensure uniform infestation (ca. 30-70 aphids per plant). Compounds (2 mg) were dissolved in 2 mL of acetone/methanol (1:1) solvent, forming stock solutions of 1000 ppm. The stock solutions were diluted 5× with 0.025% Tween 20 in H2O to obtain a solution at 200 ppm. A hand-held Devilbiss aspirator type sprayer was used to apply the spray solutions until runoff to both sides of the squash cotyledon leaves. Four plants (4 replications) were used for each concentration of each compound. Reference plants (solvent check) were sprayed with the diluent only. Treated plants were held in a holding room for three days at approximately 25° C. and 40% RH before the number of live cotton aphids on each plant was recorded. Insecticidal activity data presented in Table 3 were generated by using Abbott's correction formula: Corrected%Control=100*(X−Y)/X • where X=No. of live aphids on solvent check plants • Y=No. of live aphids on treated plants

Row | SMILES | inhibition at 200 ppm [1] | inhibition at 200 ppm [2] | inhibition at 200 ppm [3] | melting point
1 | CCC(CC)(CSC)C(=O)N(C)c1nnc(-c2cccnc2)s1 [Compound 53] | 0 to 80% | 0 to 80% | 80 to 100% | –
2 | CN(C(=O)CCS(=O)(=O)Cc1ccccc1)c1nnc(-c2cccnc2)s1 [Compound 40] | < 0% | – | < 0% | 198 to 201 °C
3 | CSCCC(=O)N(CC1CC1)c1nnc(-c2cccnc2)s1 [Compound 98] | 80 to 100% | < 0% | – | –
4 | COCCOC(=O)N(C)c1nnc(-c2cccnc2)s1 [Compound 16] | 0 to 80% | – | 80 to 100% | –
5 | CSCC(Cc1ccccc1)C(=O)N(C)c1nnc(-c2cccnc2)s1 (stereo not shown) [Compound 57] | 0 to 80% | – | 0 to 80% | –
6 | CN(CCC(=O)N(C)c1nnc(-c2cccnc2)s1)C(=O)OCc1ccccc1 [Compound 31] | < 0% | – | < 0% | –
7 | CC(CS(C)(=O)=O)C(=O)N(C)c1nnc(-c2cccnc2)s1 (stereo not shown) [Compound 37] | 80 to 100% | 0 to 80% | 80 to 100% | –
8 | CN(C(=O)CCN)c1nnc(-c2cccnc2)s1 [Compound 41, 3-amino-N-methyl-N-(5-(pyridin-3-yl)-1,3,4-thiadiazol-2-yl)propanamide] | 0 to 80% | – | 80 to 100% | 110 to 112 °C
9 | COC(=O)CCC(=O)N(C)c1nnc(-c2ccncc2)s1 [Compound 97] | < 0% | – | 0 to 80% | 175 to 177 °C
10 | CSCCC(=O)N(C)c1nnc(-c2ccncc2)s1 [Compound 96] | – | – | 0 to 80% | 152 to 154 °C
11 | CN(C(=O)CCSC(F)(F)F)c1nnc(-c2cccnc2)s1 [Compound 27, N-methyl-N-(5-(pyridin-3-yl)-1,3,4-thiadiazol-2-yl)-3-(trifluoromethylthio)propanamide] | 0 to 80% | – | 80 to 100% | –
12 | CC(C)(CS(C)(=O)=O)C(=O)Nc1nnc(-c2cccnc2)s1 [Compound 36] | 0 to 80% | – | 80 to 100% | –
13 | CSC(=O)N(C)c1nnc(-c2cccnc2)s1 [Compound 55, S-methyl methyl(5-(pyridin-3-yl)-1,3,4-thiadiazol-2-yl)carbamothioate] | < 0% | – | 0 to 80% | 192 to 194 °C
14 | CN(C(=O)C(C)(C)CO[Si](C)(C)C(C)(C)C)c1nnc(-c2cncc(F)c2)s1 | – | – | – | 102 to 105 °C
15 | CN(C(=O)CCS)c1nnc(-c2cccnc2)s1 [Compound 25, 3-mercapto-N-methyl-N-(5-(pyridin-3-yl)-1,3,4-thiadiazol-2-yl)propanamide] | 80 to 100% | – | 80 to 100% | 149 to 151 °C
16 | CCOC(=O)Nc1nnc(-c2cccnc2)s1 [Compound 14] | < 0% | – | 0 to 80% | 127 to 132 °C
17 | CN(C(=O)CCSc1ccccc1)c1nnc(-c2cccnc2)s1 [Compound 10] | 80 to 100% | – | 0 to 80% | –
18 | CN(C(=O)C(C)(C)CS(C)(=O)=O)c1nnc(-c2cccnc2)s1 [Compound 33] | 80 to 100% | 0 to 80% | 80 to 100% | –

Row | SMILES | inhibition at 200 ppm [1] | inhibition at 200 ppm [2] | inhibition at 200 ppm [3] | melting point
19 | CCOC(=O)N(C)c1nnc(-c2cccnc2)s1 [Compound 15] | < 0% | – | 0 to 80% | 162 to 164 °C
20 | CCOC(=O)N(C)c1nnc(-c2cncc(F)c2)s1 [Compound 87] | – | 80 to 100% | – | –
21 | CCSC(C)CC(=O)N(C)c1nnc(-c2cccnc2)s1 (stereo not shown) [Compound 13] | 80 to 100% | 0 to 80% | 80 to 100% | –
22 | CN(C(=O)CCSC(c1ccccc1)(c1ccccc1)c1ccccc1)c1nnc(-c2cccnc2)s1 [Compound 22, N-methyl-N-(5-(pyridin-3-yl)-1,3,4-thiadiazol-2-yl)-3-(tritylthio)propanamide] | 0 to 80% | – | < 0% | 60 to 75 °C
23 | CN(C(=O)CCNC(=O)OCc1ccccc1)c1nnc(-c2cccnc2)s1 [Compound 30] | < 0% | – | 0 to 80% | –
24 | CC(=O)SCCC(=O)N(C)c1nnc(-c2cccnc2)s1 [Compound 26, S-3-(methyl(5-(pyridin-3-yl)-1,3,4-thiadiazol-2-yl)-amino)-3-oxopropyl ethanethioate] | 0 to 80% | – | 0 to 80% | 133 to 135 °C
25 | CN(C(=O)CCNC#N)c1nnc(-c2cccnc2)s1 [Compound 23, 3-(cyanoamino)-N-methyl-N-[5-(3-pyridyl)-1,3,4-thiadiazol-2-yl]propanamide] | 80 to 100% | – | 80 to 100% | 155 to 159 °C
26 | CSCOC(=O)N(C)c1nnc(-c2cccnc2)s1 [Compound 54, methylthiomethyl methyl(5-(pyridin-3-yl)-1,3,4-thiadiazol-2-yl)carbamate] | < 0% | – | 0 to 80% | –
27 | COC(=O)CCC(=O)N(c1ccccc1)c1nnc(-c2cccnc2)s1 [Compound 59] | < 0% | – | 0 to 80% | 152 to 155 °C
28 | CCSCC(C)(C)C(=O)N(C)c1nnc(-c2cccnc2)s1 [Compound 17] | 80 to 100% | 0 to 80% | 80 to 100% | –
29 | CSCCC(=O)N(c1ccccc1)c1nnc(-c2cccnc2)s1 [Compound 58] | – | – | < 0% | 117 to 120 °C
30 | CSCCNC(=S)N(C)c1nnc(-c2cncc(F)c2)s1 [Compound 86, 1-[5-(5-fluoro-pyridin-3-yl)-[1,3,4]thiadiazol-2-yl]-1-methyl-3-(2-methylsulfanyl-ethyl)-thiourea] | 80 to 100% | 80 to 100% | – | –
31 | CSCCCN(C(C)=O)c1nnc(-c2cccnc2)s1 [Compound 47] | < 0% | – | 0 to 80% | –
32 | CSCCN(C)C(=O)N(C)c1nnc(-c2cncc(F)c2)s1 [Compound 83, 1-[5-(5-fluoro-pyridin-3-yl)-[1,3,4]thiadiazol-2-yl]-1,3-dimethyl-3-(2-methylsulfanyl-ethyl)-urea] | 80 to 100% | 0 to 80% | – | –
33 | CS/C=C/C(=O)N(C)c1nnc(-c2cccnc2)s1 [Compound 21, (E)-N-methyl-3-(methylthio)-N-(5-(pyridin-3-yl)-1,3,4-thiadiazol-2-yl)acrylamide] | 80 to 100% | – | 0 to 80% | –
34 | CSCC(C)(C)C(=O)Nc1nnc(-c2cccnc2)s1 [Compound 35] | 0 to 80% | – | 80 to 100% | 182 to 188 °C
35 | CSCCC(=O)N(C)c1nnc(-c2cnccc2C(F)(F)F)s1 [Compound 60] | < 0% | – | 0 to 80% | –
36 | CN(C(=O)OCCS(C)(=O)=O)c1nnc(-c2cccnc2)s1 [Compound 52] | 0 to 80% | – | 0 to 80% | 198 to 200 °C
